# Tests used:
# [1] = tested on: carrageenan induced inflammation; test: In-vivo carrageenan method of inflammation (paw edema); parameters: species or system Albino mice; settings: flavone 10 mg/kg, aspirin 100 mg/kg
# Source text: (§1) The Albino mice with an average body weight of 25–30 g were obtained from NIH, Islamabad, Pakistan from our designed studies. The animals were kept in the animal house of the university and were kept under controlled conditions as per the standard guidelines. The animals were used in experiments according to the standard protocols as per the approval of Departmental Ethical Committee with approval letter number DREC-140 [36].
# The progression of inflammation stimulated by carrageenan is a biphasic system. In the initial phase the serotonin and histamine were released, while in the second phase of swelling prostaglandin, bradykinin, leukotriene and lysozyme were mediated. The non-steroidal and steroidal drugs can wield their function in the second phase of the edema formation.
# In the assay, animals were randomly divided into three groups with eight in each group. The first group, Group I, was the negative control and was given dimethyformamide 1% 10 mL/kg bw. […] The third group (Group III) was given 10 mg/kg bw of the isolated flavone. After ½ h, 1% of the saline solution of carrageenan (w/v, 0.05 mL) was given in a sub-planter area of the animals. Afterwards, the paw edema was determined with the help of a plethysmometer (Model LE 7500 plan. Lab SL) with different time intervals. The paw edema of the mice administered with flavone, and with those of the standard drug, were measured at different time intervals. The measurements of paw edema were compared with the mice serving as the negative control group. The percent inhibition activity was calculated as per the standard procedure.
# [2] = DPPH free radical scavenging assay
# Experimental: Free radicals and 1,1-diphenyl, 2-picrylhydrazyl (DPPH) were used for the illustration of the free radical scavenging ability of the molecule. This assay involved the addition of different dilutions (250, 500 and 1000 μg/mL) of this compound to 0.004% methanolic solution of DPPH. […] Ascorbic acid, in this case, was used as a positive control. The percent activity was calculated according to the formula.
# eeAChE = molecular target: T1, eeAChE (Electrophorus electricus, UniProt O42275); test: biochemical
# T1 construct: the acetylcholinesterase enzymes used were obtained from an electric eel; from tissue; host or cells: electric eel
# Source text: (§2) For the determination of anti-cholinesterase activity of the compounds, the acetylcholinesterase enzymes used were obtained from an electric eel. The butyrylcholinesterase (BChE) is obtained from equine serum. The principle of this assay is based on the hydrolysis of […] by the enzymes AChE and the hydrolysis of butyrylcholine iodide by the enzyme butyrylcholinesterase. This process of hydrolysis yields 5-thio-2-nitrobenzoate anion which then form a complex with DTNB (yellow color) which can be detected by spectrophotometer.
# (§3) Then KOH was used for the adjustment of pH.
# (§4) In each of these enzyme assays, the enzyme solution (5 μL) was added to the cuvette followed by the addition of the compound (205 μL), and finally DTNB reagents (5 μL) were added. The solution was maintained in a water bath at a temperature of 30 °C for 15 min, and then the substrate solution (5 μL) was added. […] The negative control consists of all the components except the compound. […] The absorbance, as well as the reaction time, were taken for 4 min at a temperature of 30 °C and were repeated in triplicate.
# COX-2 = molecular target: T2, COX-2 (Homo sapiens, UniProt P35354); test: biochemical
# T2 sequence (P35354 18-604): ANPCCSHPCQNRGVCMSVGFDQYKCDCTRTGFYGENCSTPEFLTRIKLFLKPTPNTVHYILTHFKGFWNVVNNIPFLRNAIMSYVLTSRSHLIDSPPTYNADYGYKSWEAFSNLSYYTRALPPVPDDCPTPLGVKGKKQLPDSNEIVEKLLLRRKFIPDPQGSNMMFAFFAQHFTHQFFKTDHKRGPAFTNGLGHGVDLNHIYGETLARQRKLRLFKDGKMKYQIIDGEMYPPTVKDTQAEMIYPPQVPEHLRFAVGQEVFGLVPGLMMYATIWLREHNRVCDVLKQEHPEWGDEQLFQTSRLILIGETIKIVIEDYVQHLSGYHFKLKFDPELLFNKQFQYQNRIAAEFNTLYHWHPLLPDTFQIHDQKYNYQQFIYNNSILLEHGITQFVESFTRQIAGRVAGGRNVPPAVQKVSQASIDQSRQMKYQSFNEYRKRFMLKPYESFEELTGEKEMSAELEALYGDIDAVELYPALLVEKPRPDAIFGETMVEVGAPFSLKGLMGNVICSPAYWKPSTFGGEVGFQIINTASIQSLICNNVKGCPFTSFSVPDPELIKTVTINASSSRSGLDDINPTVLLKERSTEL
# Acute toxicity = settings: mice, 25-2000 mg/kg b. wt, monitored 3 days
# Source text: as §1
# [3] = ABTS free radical scavenging assay; settings: read-out: ABTS IC50
# Experimental: To determine the radical scavenging activity of the compound, we added 3.0 mL of ABTS solution to 300 mL of the compound in a cuvette. By spectrophotometer, we measured the absorbance reduction one minute after the mixing of the solution and continued measuring it for 6 min. For positive control, ascorbic acid is used. We then repeated the assay three times and calculated the percent of inhibition according to the formula [35].
# Human recombinant MAO-B = molecular target: T3, Human recombinant MAO-B (Homo sapiens, UniProt P27338); test: MAO-B inhibition assay (Amplex Red)
# T3 sequence (P27338 1-520): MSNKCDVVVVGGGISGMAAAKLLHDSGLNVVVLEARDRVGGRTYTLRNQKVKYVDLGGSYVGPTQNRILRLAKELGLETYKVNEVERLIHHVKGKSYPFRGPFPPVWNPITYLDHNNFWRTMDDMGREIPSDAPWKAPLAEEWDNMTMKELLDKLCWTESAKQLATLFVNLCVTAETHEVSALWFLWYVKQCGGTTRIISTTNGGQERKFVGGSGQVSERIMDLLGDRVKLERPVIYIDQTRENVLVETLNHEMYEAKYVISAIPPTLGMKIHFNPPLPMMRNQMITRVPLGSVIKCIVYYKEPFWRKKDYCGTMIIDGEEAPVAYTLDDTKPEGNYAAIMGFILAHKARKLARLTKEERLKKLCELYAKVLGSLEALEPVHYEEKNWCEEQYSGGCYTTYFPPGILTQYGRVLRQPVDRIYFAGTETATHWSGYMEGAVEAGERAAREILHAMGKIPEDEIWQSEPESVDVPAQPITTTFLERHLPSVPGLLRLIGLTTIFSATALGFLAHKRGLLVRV
# Experimental: Human recombinant MAO-B enzymes used in this assay were obtained from insect cells. The substrate used for MAO-B enzyme is benzylamine hydrochloride. For all the enzymes reactions, as well as for dilutions sodium phosphate buffer (0.05 M), a PH of 7.4 is used. […] The activity of the test compound hMAO-B assay is determined by calculating its effect on H2O2 production from benzylamine while using an Amplex Red MAO assay kit (Invitrogen). In this assay, a volume of 0.1 mL sodium phosphate buffer (0.05 M) with a PH of 7.4, which contains different concentrations of the test compound (reference inhibitors or new compound) and a sufficient quantity of recombinant hMAO-B (0.5 μL, 71 Unit/mg) is incubated at 37 °C for 1 h in a 96-well plate. After incubating, the reaction was initiated by the addition of (final concentration) 200 μM Amplex Red reagent, 1 mM benzylamine hydrochloride and 1 Unit/mL horseradish peroxidase. The H2O2 production, and finally resorufin, was measured in a multi-detection microplate fluorescence reader (TECAN) at 37 °C and with an absorbance of 570 nm. […] Then, specific fluorescence absorbance was determined after subtracting the background activity, measured from the vials which contains all the components except hMAO-B, and was replaced by buffer solution [34].
# [4] = tested on: CCl4-induced oxidative stress markers (SOD, CAT, MDA, TP); test: In-vivo antioxidant markers in CCl4-induced oxidative stress; parameters: species or system Albino mice; settings: CCl4 treated mice
# Source text: as §1
# In this assay, the experimental animals were divided into four groups with five animals in each group. Group I was given the corn oil as a vehicle. The remaining three groups ([…]) were given CCl4 in corn oil in a ratio of 1 to 5 (v/v) for the induction of oxidative stress. The two groups were given 5 and 10 mg/kg bw of the isolated flavone for two weeks. One day after the last administration, the animals were given IM zoletil50 (30 mg/kg bw) with xylazine (5 mg/kg bw) for about 10 min to get anesthetized. Afterwards, the blood sample was taken out by cardiac puncture into EDTA-tubes. After the experiments, the animals were euthanized as per the standard procedure. The blood (200 μL) was centrifuged for 10 min at the rate of 3000 rpm. The plasma was used for the biochemical studies. Afterwards, 0.9% of physiological saline was added to the cellular layer to double up the volume. Again, it was centrifuged under the same set of conditions and the upper layer was discarded. The experiments were repeated three times and erythrocytes were isolated. The isolated erythrocytes were stored at a low temperature (−20 °C). The vital organs like kidneys, liver and heart were harvested, washed and weighted.
# The RBCs were employed in a cellular model to evaluate the potency of antioxidants to penetrate into the living cells from plasma.
# The superoxide dismutase assay was performed as per the reported procedure. […] The reaction was initiated with the addition of adrenaline (0.3 mM, 0.3 mL) to the buffered mixture. This was mixed immediately and was subjected to a spectrophotometer as a sample cuvette. The solution of buffer (2.5 mL), substrate (0.3 mL) and distilled water (0.2 mL) were added in the reference cuvette. The increase in absorbance (480 nm) was monitored for 2.5 min with 30 sec intervals against a blank. The SOD was calculated as per the reported procedure.
# The catalase assay on the isolated compound was performed as per the standard protocols. […] To each of these test tubes, potassium dichromate was added. The tubes were heated for 10 min up to 100 °C. The tubes were then allowed to cool down and optical density was measured at 570 nm. The standard curve of concentration vs. absorbance of H2O2 was plotted. Afterwards, haemolysate (1 mL) was diluted and added to the test tube containing H2O2 (2 mL) and phosphate buffer (2.5 mL, 0.01 M having pH 7.0) and were mixed. After every 30 sec, one ml of solution was withdrawn and was transferred to acidified potassium dichromate (2 mL) for 2 min. This was mixed and heated up to 100 °C for 10 min. The solution was then cooled down and optical density was measured (at 570 nm) against the blank. The catalase activity was calculated as per the standard method.
# The lipid peroxidation was performed with malondialdehyde assay as per the reported methods. The diluted haemolysate (0.4 mL, 1:10 v/v) was added to the test tube containing acetic acid sodium hydroxide along with thiobarbituric acid, having a volume of 2 mL each. […] The activity was then calculated as per the standard method.
# The total proteins assay of the experiment was performed as per the standard method. The diluted haemolysate (0.2 mL), bovine albumin (0.2 mL, 2 g/dl), distilled water (2 mL) and working reagent 1 mL (CuSO4 with NaK one part and Na2CO3 with NaOH 100 parts) were added in different test tubes. This was mixed and incubated at room temperature for 10 min. […] The absorbance was measured at 570 nm against the blank.
# 5-LOX = settings: read-out: IC50 5-LOX
# Experimental: Using an established procedure, the 5-lipoxygenase activity was performed. […] Afterwards, the 5-lipoxygenase solution (10,000 Unit/mL) was prepared. Linoleic acid (80 Mm) was the substrate used for the 5-LOX assay. We also prepared phosphate buffer (50 Mm) with PH 6.3. WE dissolved the various concentrations of the compound in each 0.25 mL of phosphate buffer, then added 0.25 mL of lipoxygenase enzyme to it and incubated it at 25 °C for 5 min. […] We repeated this experiment three times. The standard drug used was Zileuton [36]. By using the following equation, percent inhibition was calculated: Percent inhibition=Absorbance of control−absorbance of sample/Absorbance of control×100
# eqBChE = molecular target: T4, eqBChE (Equus caballus, UniProt P81908); test: Anti-cholinesterase assay (DTNB, spectrophotometric), BChE; type: biochemical, equine
# T4 construct: The butyrylcholinesterase (BChE) is obtained from equine serum; from tissue; host or cells: equine serum
# Source text: as §2, §3, §4
# T4 sequence (P81908 whole entry): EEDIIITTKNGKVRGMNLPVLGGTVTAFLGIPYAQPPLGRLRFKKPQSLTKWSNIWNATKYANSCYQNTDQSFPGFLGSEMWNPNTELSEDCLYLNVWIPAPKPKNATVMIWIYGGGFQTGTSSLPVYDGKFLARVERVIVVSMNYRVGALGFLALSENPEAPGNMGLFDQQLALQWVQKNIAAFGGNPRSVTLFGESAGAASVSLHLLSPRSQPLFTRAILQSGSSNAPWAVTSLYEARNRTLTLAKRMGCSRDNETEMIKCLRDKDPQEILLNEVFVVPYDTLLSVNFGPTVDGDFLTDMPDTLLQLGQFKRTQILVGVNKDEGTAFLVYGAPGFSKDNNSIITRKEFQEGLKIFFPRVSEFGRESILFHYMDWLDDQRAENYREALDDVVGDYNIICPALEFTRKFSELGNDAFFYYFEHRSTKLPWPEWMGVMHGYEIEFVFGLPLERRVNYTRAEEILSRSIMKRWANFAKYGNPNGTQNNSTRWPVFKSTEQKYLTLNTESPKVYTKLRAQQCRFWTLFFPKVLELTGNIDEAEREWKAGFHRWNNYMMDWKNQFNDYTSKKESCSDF
# T1 sequence (O42275 24-633): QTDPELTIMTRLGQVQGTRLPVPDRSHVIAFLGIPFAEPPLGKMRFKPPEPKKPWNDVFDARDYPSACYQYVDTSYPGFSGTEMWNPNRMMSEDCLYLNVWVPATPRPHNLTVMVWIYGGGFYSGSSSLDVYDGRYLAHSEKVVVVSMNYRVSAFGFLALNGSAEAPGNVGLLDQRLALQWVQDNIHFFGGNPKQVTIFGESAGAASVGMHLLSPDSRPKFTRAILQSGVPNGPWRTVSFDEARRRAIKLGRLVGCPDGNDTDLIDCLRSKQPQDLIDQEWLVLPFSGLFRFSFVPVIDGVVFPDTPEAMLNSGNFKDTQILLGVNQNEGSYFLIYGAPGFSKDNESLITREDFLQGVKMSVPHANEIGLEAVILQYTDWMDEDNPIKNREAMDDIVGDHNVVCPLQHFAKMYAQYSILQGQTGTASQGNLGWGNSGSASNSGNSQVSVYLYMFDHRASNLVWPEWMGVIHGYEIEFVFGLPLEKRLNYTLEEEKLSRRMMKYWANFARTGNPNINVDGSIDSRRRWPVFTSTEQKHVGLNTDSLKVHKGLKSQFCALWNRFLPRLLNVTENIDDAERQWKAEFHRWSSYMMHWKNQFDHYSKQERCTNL
smiles,measurement,setting,value
"CC(=O)Oc1ccccc1C(=O)O [Aspirin, reference compound]",percent inhibition of paw edema,[1]; fifth h,57.64%
same,percent inhibition of paw edema,[1]; first hour,47.54%
same,percent inhibition of paw edema,[1]; fourth h,56.92%
same,percent inhibition of paw edema,[1]; second hour,54.63%
same,percent inhibition of paw edema,[1]; third h,53.26%
"COc1ccc(-c2oc3cc(O)ccc3c(=O)c2O)cc1OC [Isolated flavone, 2-(3,4-dimethoxyphenyl)-3,7-dihydroxy-4H-chromen-4-one]",IC50,[2],44300 nM
same,percent inhibition of paw edema,[1]; fifth h,45%
same,percent inhibition of paw edema,[1]; first hour,45%
same,percent inhibition of paw edema,[1]; fourth h,49%
same,percent inhibition of paw edema,[1]; second hour,47%
same,percent inhibition of paw edema,[1]; third h,42%
same,IC50,eeAChE,1370 ± 10 nM
same,IC50,COX-2,380 ± 120 nM
same,SI (COX-2 selectivity),COX-2,18.70
same,safety in animals (acute toxicity),Acute toxicity,safe
same,IC50,[3],33400 nM
same,IC50,Human recombinant MAO-B,140 ± 10 nM
same,MDA blood levels,[4]; 5 mg/kg for two weeks,1.15 ± 0.05 µmol/L
same,SOD blood levels (second mention),[4]; 5 mg/kg for two weeks,0.12 ± 0.02 UL/mg
same,SOD levels,[4]; 5 mg/kg for two weeks,8.52 ± 0.51 UL/mg
same,MDA blood levels,[4]; 10 mg/kg for two weeks,1.05 ± 0.03 µmol/L
same,SOD blood levels (second mention),[4]; 10 mg/kg for two weeks,0.12 ± 0.32 UL/mg
same,SOD levels,[4]; 10 mg/kg for two weeks,9.58 ± 0.41 UL/mg
same,TP levels,[4]; treated groups versus CCl4 group,significantly changed
same,IC50,5-LOX,840 ± 130 nM
same,IC50,eqBChE,950 ± 40 nM
same,SI,eqBChE,1.44
"C[C@H]1O[C@H](O[C@H]2[C@H](O)[C@@H](O)[C@@H](O[C@H]3[C@H](O)[C@@H](O)C(O)O[C@@H]3CO)O[C@@H]2CO)[C@H](O)[C@@H](O)[C@@H]1N[C@H]1C=C(CO)[C@@H](O)[C@H](O)[C@H]1O (some centres unmarked) [Acarbose, reference compound]",IC50,[2],16000 nM
same,IC50,[3],12700 nM

# Source: publication PMC9694897 (Metabolites, 2022)
